Assay results: patent US20220313651A1, “INHIBITORS OF ZIKA VIRUS INFECTION” (priority 2019, published 2022)

Tests used:
[1] = molecular target: T1, ZIKV EDIII protein (E residues 298-409) (Zika virus, UniProt Q32ZE1, D679E/I627V/V603I/V629A); assay type: binding; details: ELISA
T1 construct: human Fc (C)
Experimental: (§1) Binding of compounds (NPs) to ZIKV full-length E (FIG. 3A), EDIII (FIG. 3B), and NS2B-NS3 (FIG. 3C) proteins, was detected by ELISA. The percent binding was reported in the presence or absence of serially diluted NPs using the formula (1-[E/EDIII-NP]/[E/EDIII])×100 (for E/EDIII binding) or (1-[NS2B-NS3-NP]/[NS2B-NS3])×100 (for NSEB-NS3 binding). […] The concentrations of ZIKV EDIII and mAbs were 1.5 and 0.5 μg/ml, respectively. […] The concentrations of substrate (Bz-Nle-Lys-Lys-Arg-AMC) and ZIKV NS2B-NS3 protein were 4 μM and 1 μg/ml, respectively. The percent inhibition of protease activity was calculated in the presence or absence of serially diluted compounds using the formula (1-[NS2B-NS3-substrate-NP]/[NS2B-NS3-substrate])×100. The IC50 values were calculated based on the percent inhibition. The data are expressed as mean±s.e.m. (n=4).
(§2) The data are expressed as mean±s.e.m. (n=4), and DMSO was used as negative control. Surface plasmon resonance (SPR) analysis of the binding between ST087010 and ZIKV EDIII (FIG. 6D) or NS2B-NS3 (FIG. 6E) protein was performed. Binding affinity was shown as KD (equilibrium dissociation constant).
(§3) The binding between the Z-medicament and ZIKV full-length E protein, EDIII protein (E residues 298-409 fused with a C-terminal human Fc), or NS2B-NS3 protease was carried out by ELISA. Briefly, ELISA plates were pre-coated with the proteins described above at 4° C. overnight, and blocked with 2% fat-free milk at 37° C. for 2 h. Serial dilutions of the Z-medicament or DMSO (control) were then added to the plates and incubated at 37° C. for 2 h. The plates were washed with PBS containing Tween-20 (PBST), and incubated at 37° C. for 1 h with ZIKV EDIII-specific human mAb ZKA64-LALA (0.5 μg/ml) (for binding to ZIKV full-length E and EDIII proteins), or mouse sera specific to ZIKV NS2B-NS3 (for binding to NS2B-NS3 protease). The plates were washed with PBST, and incubated with horseradish peroxidase (HRP)-conjugated anti-human IgG-Fab (1:3000) or anti-mouse IgG (1:3000) antibody at 37° C. for 1 h. The 3,3′,5,5′-tetramethylbenzidine (TMB) substrate was added to the plates, and the reaction was stopped by 1 N H2SO4. Absorbance at 450 nm (A450 value) was measured by ELISA microplate reader.
Briefly, ELISA plates were coated with each protein (1 μg/ml) at 4° C. overnight, and were then incubated with blocking buffer containing 2% fat-free milk in PBST at 37° C. for 2 h. The above compounds, or DMSO control, at serial dilutions were added to the plates, and incubated at 37° C. for 2 h. […] Absorbance at 450 nm (A450 values) was measured by an ELISA microplate reader. EC50 values were calculated.

ZIKV NS2B-NS3 protease = molecular target: T2, ZIKV NS2B-NS3 protease (Zika virus, UniProt Q32ZE1); experiment: ELISA binding to ZIKV NS2B-NS3 protease
T2 construct: 49-97) and NS2 protein (residues 1-185) through a covalent; made in house; host or cells: E. coli
Experimental: as §1, §2, §3
(§4) Briefly, ELISA plates were coated with each protein (1 μg/ml) at 4° C. overnight, and were then incubated with blocking buffer containing 2% fat-free milk in PBST at 37° C. for 2 h. The above compounds, or DMSO control, at serial dilutions were added to the plates, and incubated at 37° C. for 2 h. After three washes using PBST, the plates were incubated at 37° C. for 2 h with ZIKV EDIII-specific human mAb ZKA64-LALA (0.5 μg/ml) (for binding to ZIKV full-length E or EDIII protein), or ZIKV NS2B-NS3-specific mouse sera (for binding to NS2B-NS3 protein). After further washes, the plates were incubated with HRP-conjugated anti-human IgG-Fab (1:3,000) or anti-mouse IgG (1:3,000) antibody at 37° C. for 1 h.

Vero E6 cells = experiment: in vitro; details: Vero E6 cells
Experimental: The cytotoxicity of the Z-medicaments in Vero E6 (ZIKV target cells) was evaluated using the Cell Counting Kit-8 (CCK8).
Briefly, compounds at 2-fold serial dilutions were added to cells (2.0×10^4/well) pre-seeded in 96-well plates. The cells were cultured at 37° C. for 3 days, and incubated with CCK8 solution, followed by measurement of absorbance at 450 nm (A450 value) using microplate reader.

[2] = molecular target: ZIKV full-length E protein (Zika virus, UniProt Q32ZE1); experiment: ELISA binding to ZIKV full-length E protein
Experimental: as §1, §2, §3
as §4, with “1 h. The plates were incubated with substrate TMB, and the reaction was stopped by addition of 1 N H2SO4. Absorbance at 450 nm (A450 values) was measured by an ELISA microplate reader. EC50 values were calculated.” for “1 h.”

[3] = test system: ZIKV human strain R103451 (2015/Honduras); experiment: Plaque reduction inhibition assay in Vero E6 cells, ZIKV R103451; assay type: cell-based, Zika virus (ZIKV); details: Vero E6 cells; Table 7, gossypol derivatives; read-out: ZIKV strains IC50, R103451
Experimental: (§5) A plaque reduction inhibition assay was carried out to measure the inhibitory activity of Z-medicaments against infections of ZIKV and DENV. […] The compound-virus mixtures were then transferred to Vero E6 cells (10^5/well) and incubated at 37° C. for 1 h.

[4] = test system: ZIKV human strain FLR (2015/Colombia); experiment: Plaque reduction inhibition assay in Vero E6 cells, ZIKV FLR; assay type: cell-based, Zika virus (ZIKV); details: Vero E6 cells; Table 7, gossypol derivatives; read-out: ZIKV strains IC50, FLR
Experimental: as §5

[5] = test system: ZIKV rhesus macaque strain MR 766 (1947/Uganda); experiment: Plaque reduction inhibition assay in Vero E6 cells, ZIKV MR 766; assay type: cell-based, Zika virus (ZIKV); details: Vero E6 cells; Table 7, gossypol derivatives; read-out: ZIKV strains IC50, MR766
Experimental: as §5

[6] = test system: ZIKV human strain PAN2015 (2015/Panama); experiment: microbe, parasite or virus in culture; assay type: cell-based, Zika virus (ZIKV); details: Vero E6 cells; Table 7, gossypol derivatives; read-out: ZIKV strains IC50, PAN2015
Source text: (§6) Vero E6 and LLC-MK2 cells were maintained in Dulbecco's Modified Eagle Medium (DMEM) supplemented with 8% fetal bovine serum (FBS) and penicillin and streptomycin (P/S). C6/36 cells were maintained in Eagle's Minimal Essential Medium (EMEM) supplemented with 5% FBS and P/S. ZIKV strains, including human strains PAN2016 (2016/Panama), R116265 (2016/Mexico), PAN2015 (2015/Panama), FLR (2015/Colombia), R103451 (2015/Honduras), PRVABC59 (2015/Puerto Rico), PLCal_ZV (2013/Thailand), and IbH 30656 (1968/Nigeria), mosquito strain MEX 2-81 (2016/Mexico), and rhesus macaque strain MR 766 (1947/Uganda), were used in the studies. These ZIKV strains were cultured in Vero E6 cells, and viral titers were detected by a standard plaque-forming assay. DENV human strains, including type 1: DENV-1-V1792 (2007/Vietnam), type 2: DENV-2-V594 (2006/Puerto Rico), type 3: DENV-3-V1043 (2006/Puerto Rico), and type 4: DENV-4-PR 06-65-740 (2006/Puerto Rico), were cultured in C6/36 cells, and the viral titers were determined by plaque-forming assay as described above.
as §5, with “h. […] The cells were washed thoroughly with PBS, and overlaid with DMEM containing 1% carboxymethyl cellulose and 2% FBS, followed by in vitro culture at 37° C. for 4-5 days and then staining with 0.5% crystal violet.” for “h.”
(§7) After removal of the unbound compounds by centrifugation after addition of 3% PEG-6000, ZIKV was incubated with Vero E6 cells at 37° C. for 1 h. The cells were then washed with PBS, overlaid with DMEM containing 1% carboxymethyl cellulose and 2% FBS, and cultured at 37° C. for 4-5 days, followed by staining with 0.5% crystal violet.

[7] = test system: ZIKV human strain R116265 (2016/Mexico); experiment: Plaque reduction inhibition assay in Vero E6 cells, ZIKV R116265; assay type: cell-based, Zika virus (ZIKV); details: Table 7, gossypol derivatives, read-out: ZIKV strains IC50, R116265
Source text: as §6
as §5, with “h. […] The cells were washed thoroughly with PBS, and overlaid with DMEM containing 1% carboxymethyl cellulose and 2% FBS, followed by in vitro culture at 37° C. for 4-5 days and then staining with 0.5% crystal violet.” for “h.”
as §7

[8] = test system: ZIKV human strain PAN2016 (2016/Panama); experiment: Plaque reduction inhibition assay in Vero E6 cells, ZIKV PAN2016; assay type: cell-based, Zika virus (ZIKV); details: Vero E6 cells; Table 7, gossypol derivatives; read-out: ZIKV strains IC50, PAN2016
Experimental: as §5

[9] = test system: ZIKV human strain PLCal_ZV (2013/Thailand); experiment: Plaque reduction inhibition assay in Vero E6 cells, ZIKV PLCal_ZV; assay type: cell-based, Zika virus (ZIKV); details: Vero E6 cells; Table 7, gossypol derivatives; read-out: ZIKV strains IC50, PLCal_ZV
Experimental: as §5

[10] = test system: ZIKV human strain IbH 30656 (1968/Nigeria); experiment: Plaque reduction inhibition assay in Vero E6 cells, ZIKV IbH 30656; assay type: cell-based, Zika virus (ZIKV); details: Table 7, gossypol derivatives, read-out: ZIKV strains IC50, IbH 30656
Experimental: as §5

[11] = test system: ZIKV mosquito strain MEX 2-81 (2016/Mexico); experiment: Plaque reduction inhibition assay in Vero E6 cells, ZIKV MEX 2-81; assay type: cell-based, Zika virus (ZIKV); details: Vero E6 cells; Table 7, gossypol derivatives; read-out: ZIKV strains IC50, MEX 2-81
Source text: as §6
as §5, with “h. […] The cells were washed thoroughly with PBS, and overlaid with DMEM containing 1% carboxymethyl cellulose and 2% FBS, followed by in vitro culture at 37° C. for 4-5 days and then staining with 0.5% crystal violet.” for “h.”
as §7

[12] = test system: ZIKV human strain PRVABC59 (2015/Puerto Rico); experiment: Plaque reduction inhibition assay in Vero E6 cells, ZIKV PRVABC59; assay type: cell-based, Zika virus (ZIKV); details: Vero E6 cells; Table 7, gossypol derivatives; read-out: ZIKV strains IC50, PRVABC59
Experimental: as §5

| SMILES | Binding to ZIKV EDIII protein (in words) [1] | Binding to ZIKV NS2B-NS3 protein (in words) (ZIKV NS2B-NS3 protease) | CC50 (Vero E6 cells; 3 days, CCK8, Table 1) | Binding to ZIKV full-length E protein (in words) [2] | IC50 [3] | IC50 [4] | IC50 [5] | IC50 [6] | IC50 [7] | CC50 (Vero E6 cells; Table 7, gossypol derivatives) | IC50 [8] | IC50 [9] | IC50 [10] | IC50 [11] | IC50 [12] |
| --- | --- | --- | --- | --- | --- | --- | --- | --- | --- | --- | --- | --- | --- | --- | --- |
| CC(C)C[C@H](NC(=O)[C@H](Cc1ccccc1)NC(=O)c1cnccn1)B(O)O [Bortezomib, bortezomib, reference compound] | bound to no ZIKV proteins tested | bound to no ZIKV proteins tested | 17 ± 0.2 µM | bound to no ZIKV proteins tested |  |  |  |  |  |  |  |  |  |  |  |
| CCC(O)/N=C/c1c(O)c(O)c(C(C)C)c2cc(C)c(-c3c(C)cc4c(C(C)C)c(O)c(O)c(/C=N/C(O)CC)c4c3O)c(O)c12 (stereo not shown) [ST005138] |  |  |  |  | 3.05 ± 0.09 µM | 3.44 ± 0.18 µM | 2.52 ± 0.04 µM | 2180 ± 1190 nM | 3.13 ± 0.29 µM | 22.82 ± 0.02 µM | 2290 ± 10 nM | 3.87 ± 0.54 µM | 2400 ± 270 nM | 2.89 ± 0.12 µM | 3.89 ± 0.32 µM |
| Cc1cc2c(C(C)C)c(O)c(O)c3c2c(c1-c1c(C)cc2c(C(C)C)c(O)c(O)c4c2c1OC4N)OC3N (stereo not shown) [ST069299] |  |  |  |  | 3.85 ± 0.11 µM | 3.27 ± 0.25 µM | 4.88 ± 0.05 µM | 2330 ± 100 nM | 2.57 ± 0.2 µM | 25.9 ± 2.7 µM | 2340 ± 60 nM | 3.98 ± 0.54 µM | 2540 ± 440 nM | 3.89 ± 0.24 µM | 3.33 ± 0.3 µM |
| Cc1cc2nc[nH]c2c(N=Cc2c(O)c(O)c(C(C)C)c3cc(C)c(-c4c(C)cc5c(C(C)C)c(O)c(O)c(C=Nc6c(C)c(C)cc7nc[nH]c67)c5c4O)c(O)c23)c1C [ST092971] |  |  |  |  | 6.64 ± 0.27 µM | 6.89 ± 0.05 µM | 5.2 ± 0.37 µM | 5010 ± 360 nM | 7.97 ± 0.17 µM | 72.1 ± 1.91 µM | 4980 ± 10 nM | 6.72 ± 0.2 µM | 5160 ± 210 nM | 13.5 ± 0.58 µM | 9.1 ± 0.11 µM |
